Assay results published in US20170232043A1, “BACTERIA ENGINEERED TO TREAT DISORDERS INVOLVING THE CATABOLISM OF A BRANCHED CHAIN AMINO ACID” (priority 2015, published 2017).

B1: BrnQ: low affinity BCAA transporter (protein)
chain: MTHQLRSRDIIALGFMTFALFVGAGNIIFPPMVGLQAGEHVWTAAFGFLITAVGLPVLTVVALAKVGGGVDSLSTPIGKVAGVLLATVCYLAVGPLFATPRTATVSFEVGIAPLTGDSALPLFIYSLVYFAIVILVSLYPGKLLDTVGNFLAPLKIIALVILSVAAIIWPAGSISTATEAYQNAAFSNGFVNGYLTMDTLGAMVFGIVIVNAARSRGVTEARLLTRYTVWAGLMAGVGLTLLYLALFRLGSDSASLVDQSANGAAILHAYVQHTFGGGGSFLLAALIFIACLVTAVGLTCACAEFFAQYVPLSYRTLVFILGGFSMVVSNLGLSQLIQISVPVLTAIYPPCIALVVLSFTRSWWHNSSRVIAPPMFISLLFGILDGIKASAFSDILPSWAQRLPLAEQGLAWLMPTVVMVVLAIIWDRAAGRQVTSSAH
modifications: BCAA transporter BrnQ
B2: LAADPm: L-AAD derived from P. mirabilis (protein)
chain: MAISRRKFILGGTVVAVAAGAGVLTPMLTREGRFVPGTPRHGFVEGTGGPLPKQDDVVVIGAGILGIMTAINLAERGLSVTIVEKGNIAGEQSSRFYGQAISYKMPDETFLLHHLGKHRWREMNAKVGIDTTYRTQGRVEVPLDEEDLENVRKWIDAKSKDVGSDIPFRTKMIEGAELKQRLRGATTDWKIAGFEEDSGSFDPEVATFVMAEYAKKMGIKIFTNCAARGLETQAGVISDVVTEKGPIKTSRVVVAGGVGSRLFMQNLNVDVPTLPAYQSQQLISAAPNAPGGNVALPGGIFFRDQADGTYATSPRVIVAPVVKESFTYGYKYLPLLALPDFPVHISLNEQLINSFMQSTHWDLNEESPFEKYRDMTALPDLPELNASLEKLKKEFPAFKESTLIDQWSGAMAIAPDENPIISDVKEYPGLVINTATGWGMTESPVSAEITADLLLGKKPVLDAKPFSLYRF
modifications: Synthetic: L-AAD Nucleotide sequence
notes: L-AAD derived from P. mirabilis
B3: LeuDH: leucine dehydrogenase from Pseudomonas aeruginosa, expressed in the engineered strain (protein)
chain: MFDMMDAARLEGLHLAQDPATGLKAIIAIHSTRLGPALGGCRYLPYPNDEAAIGDAIRLAQGMSYKAALAGLEQGGGKAVIIRPPHLDNRGALFEAFGRFIESLGGRYITAVDSGTSSADMDCIAQQTRHVTSTTQAGDPSPHTALGVFAGIRASAQARLGSDDLEGLRVAVQGLGHVGYALAEQLAAVGAELLVCDLDPGRVQLAVEQLGAHPLAPEALLSTPCDILAPCGLGGVLTSQSVSQLRCAAVAGAANNQLERPEVADELEARGILYAPDYVINSGGLIYVALKHRGADPHSITAHLARIPARLTEIYAHAQADHQSPARIADRLAERILYGPQ
modifications: Synthetic: leuDH codon-optimized nucleotide sequence
notes: leucine dehydrogenase from Pseudomonas aeruginosa, expressed in the engineered strain

How the values were obtained:
[1] = test system: LAD: L-amino acid deaminase of P. vulgaris; conditions: relative within the enzyme; cited from earlier work
[2] = test system: Pma: amino acid deaminase gene from P. mirabilis; conditions: relative within the enzyme; cited from earlier work
[3] = test system: Pm1: amino acid deaminase gene from P. mirabilis KCTC 2566; conditions: relative within the enzyme; cited from earlier work
rat = conditions: cited from earlier work
[4] = test system: nitric oxide inducible PnsrR-GFP reporter construct; experiment: Nitric oxide inducible PnsrR-GFP reporter construct, fluorescence in plate reader (Example 28); assay type: cell-based, E. coli Nissle; conditions: DETA-NO as NO donor, two-fold decreased inducer, across a range of concentrations
LivK = LivK (Escherichia coli, UniProt P04816); conditions: cited from earlier work
[5] = test system: ATC-inducible Ptet-GFP reporter construct; experiment: ATC-inducible Ptet-GFP reporter construct, fluorescence in plate reader (Example 28); assay type: cell-based, E. coli Nissle; conditions: two-fold decreased inducer, across a range of concentrations
leucine = experiment: in vitro leucine degradation assay (leucine in culture medium by LC-MS/MS); assay type: cell-based, E. coli Nissle

Chain of LivK (P04816 24-369): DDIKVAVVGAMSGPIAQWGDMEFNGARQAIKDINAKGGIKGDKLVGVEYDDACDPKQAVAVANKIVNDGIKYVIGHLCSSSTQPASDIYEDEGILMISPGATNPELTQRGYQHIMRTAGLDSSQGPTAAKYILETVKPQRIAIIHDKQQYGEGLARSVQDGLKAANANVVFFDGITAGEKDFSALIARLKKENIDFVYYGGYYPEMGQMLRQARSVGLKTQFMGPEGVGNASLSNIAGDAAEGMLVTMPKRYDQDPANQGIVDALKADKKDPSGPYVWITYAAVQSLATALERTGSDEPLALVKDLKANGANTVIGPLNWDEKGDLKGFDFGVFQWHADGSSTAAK

Row | Molecule | amino acid deaminase activity of LAD, percentage [1] [%] | amino acid deaminase activity of Pma, percentage [2] [%] | amino acid deaminase activity of Pm1, percentage [3] [%] | further results
1 | N[C@@H](Cc1c[nH]c2ccccc12)C(=O)O [Trp] | 41.6 | 3.2 | 10.2 | 
2 | CC(C)CO [Isobutanol] |  |  |  | Oral NOAEL* (rat) (rat; No-Observed-Adverse-Effect): >1450 mg/kg/day
3 | O=C(O)[C@@H]1CCCN1 [Pro] | 0.7 | 3.2 | 14.2 | 
4 | N[C@@H](CCC(=O)O)C(=O)O [Glu] | 1.1 | 0.6 | 35.8 | 
5 | NCCCC[C@H](N)C(=O)O [Lys] | 3.5 | 1.9 | 7.6 | 
6 | N[C@@H](Cc1c[nH]cn1)C(=O)O [His] | 79.9 | 0 | 100 | 
7 | CC(C)[C@H](N)C(=O)O [Val, valine] |  | 1.3 | 6.4 | 
8 | C[C@H](N)C(=O)O [Ala] | 3.5 | 0.6 | 9 | 
9 | N[C@@H](Cc1ccccc1)C(=O)O [Phe] | 37.4 | 100 | 46.2 | 
10 | NCCN(CCN)[N+]([O-])=NO [NO] |  |  |  | expression of GFP (relative florescence units) [4]: able to induce the expression of GFP
11 | N[C@@H](CO)C(=O)O [Ser] |  | 1.3 | 3.8 | 
12 | CC(C)C[C@H](N)C(=O)O [Leu, leucine] | 105 | 41.7 | 7.6 | Kd (LivK): ~1000 nM
13 | N[C@@H](Cc1ccc(O)cc1)C(=O)O [Tyr] | 92.8 | 0.6 | 9 | 
14 | N[C@@H](CC(=O)O)C(=O)O [Asp] | 55.4 | 10.9 | 2.6 | 
15 | N=C(N)NCCC[C@H](N)C(=O)O [Arg] | 27.3 | 28.2 | 51.2 | 
16 | CC[C@H](C)[C@H](N)C(=O)O [Ilu, isoleucine] |  | 2.6 | 6.4 | 
17 | CC(C)CCO [Isopentanol] |  |  |  | Oral LD50 (rat) (rat): >5000 mg/kg
18 | Cc1c2c(c(O)c3c(O)cccc13)C(=O)[C@]1(O)C(=O)C(C(N)=O)=C(O)[C@@H](N(C)C)[C@@H]1C2 [ATC, anhydrotetracycline] |  |  |  | expression of GFP (relative florescence units) [5]: able to induce the expression of GFP
19 | N[C@@H](CS)C(=O)O [Cys] |  | 1.9 | 9 | 
20 | NCC(=O)O [Gly] |  | 1.3 | 7.6 | 
21 | CSCC[C@H](N)C(=O)O [Met] | 100 | 16.7 | 2.6 | 
22 | C[C@@H](O)[C@H](N)C(=O)O [Thr] | 1.1 | 0 | 12.8 | 
23 | NC(=O)C[C@H](N)C(=O)O [Asn] | 43.6 | 0 | 5.2 | 
24 | NC(=O)CC[C@H](N)C(=O)O [Gln] | 1.1 | 1.3 | 5.2 | 
25 | B1 |  |  |  | rate of leucine degradation with overexpression of BrnQ (leucine; LeuE and ilvC knockout strain with leuDH-kivD-padA on high copy plasmid, tet inducible brnQ on low copy plasmid): greatly improves the rate of leucine degradation
26 | B2 |  |  |  | leucine degradation rate, comparison of adh2, yqhD, padA and of LAADPv, LAADPm (leucine; SYN469 background, with L-AAD and kivD): good alternative to LAADPV
27 | B3 |  |  |  | rate of leucine degradation (leucine; background strain Nissle ΔleuE, lacZ:tet-livKHMGF): about 160 nmol/10^9 CFU/hour
